{
  "source": "patent US11384118B2",
  "about": "“CAR-T cells targeting glioma stem cells for the treatment of glioblastoma multiforme” (H. Lee Moffitt Cancer Center and Research Institute, Inc., priority 2018, dated 2022)",
  "key": {"[1]": {"test_system": "patient-derived glioma stem cells", "assay": "IFNG release assay following overnight coculture of CAR-T cells with GSC", "assay_type": "cell-based, human", "details": "GSC vs DGC of same patient, H2110 and media negative controls", "description": "Capitalizing on the unique ability of peptides EYA and VAV to bind to GSC, a series of chimeric antigen receptors (CARs) were designed that display a peptide derived from the EYA and VAV sequences, arranged in tandem, at the N-terminus of the CAR molecule. The role of the tandem peptides in the N-terminus of the CAR is to detect GSC, which in turn will activate the T cell through the CD3ζ domain in the C-terminus. Most CARs utilize antibody-derived molecules (Abate-Daga D, L et al. Hum Gene Ther. 2014 25(12):1003-12), or natural ligands (Brown C E, et al. N Engl J Med. 2016 375(26):2561-9; Brown C E, et al. Clin Cancer Res. 2012 18(8):2199-209) to receptors expressed by target cells to perform this function. Seven CAR constructs were generated based on combinations of peptides EYA and VAV (VAV-EYA and EYA-VAV), and of VAV plus five additional peptides (termed 1-VAV, 2-VAV, 3-VAV, 4-VAV, and 5-VAV) identified in the biopanning assays (FIG. 7). CAR cDNA was cloned into a retroviral expression vector used for clinical CAR-T cell manufacture, called pMSGV1, and the resulting constructs were used to transduce human primary T cells. The expression of the CAR molecules was first analyzed by Western blot against the CD3ζ chain of the CAR. Six of the seven CAR designs were expressed in transduced cells (FIG. 8). […]"}, "glioblastoma tissue": {"test_system": "glioblastoma tissue", "assay": "Fluorescent peptide staining of glioblastoma and normal brain tissue", "assay_type": "binding, human", "details": "peptide conjugated with fluorescein", "procedure": "Patient brain tissues were obtained from Cleveland Clinic Tissue Bank. Cells (GSC and DGC) or frozen-sectioned tissues (glioblastoma and normal brain) were fixed in 4% paraformaldehyde and permeabilized with 0.1% Triton X-100 and stained using following primary antibodies: EYA1 (Aviva System Biology, ARP32434_P050), SOX2 (R&D system, MAB2018), vWF (Abcam, ab68548), CD31 (Santa Cruz Biotechnology, sc-1506), MYC (Cell signaling, 5605), and SIX1 (Abcam, ab84329) primary antibodies were incubated overnight at 4° C., followed species appropriate secondary antibodies with incubation for 3.5 hours at room temperature. Nuclei were stained with DAPI, and slides were then mounted with FluorSave (Calbiochem, 345789). Images were taken using a Leica DM4000 uplight microscopy. For DAB staining, tissues were incubated with rabbit anti-EYA1 or anti-c-Myc antibody overnight at 4° C., followed goat anti-rabbit biotinylated secondary antibody with incubation for 3.5 hours at room temperature. After incubation with antibodies, tissues were stained using VECTASTAIN Elite ABC HRP Kit (VECTOR LABORATORIES, PK-6100) and DAB Peroxidase Substrate Kit (VECTOR LABORATORIES, SK-4100) according to the manufacturer's instructions. After counterstaining with 50% hematoxylin, images were taken. […]"}, "GSCs": {"test_system": "GSCs", "assay": "Binding of Cy5.5-conjugated peptide to GSCs / GSC tumor sphere", "parameters": "species or system human", "details": "peptide conjugated with Cyanine 5.5", "procedure": "Cells were dissociated to singles with TrypLE Express (Thermo Fisher Scientific) and recovered in Neurobasal medium at 37° C. for 1-2 hours. Before the incubation with primary antibodies, cells were blocked with 2% BSA in PBS for 30-50 minutes. Primary antibodies were treated at 4° C. for 40-90 minutes. Anti-EYA1 antibody (Aviva System Biology, ARP32434_P050), anti-IgG control antibody, 5(6)-carboxyfluorescein-conjugated peptide AWEFYFP, and cyanine 5.5-conjugated peptide AWEFYFP were used as primary antibodies. After washing with 1% BSA in PBS, cells were incubated with Alexa Fluor 488-conjugated goat anti-rabbit IgG antibody (Invitrogen, A11008) at 4° C. for 40 minutes. Unstained- or secondary antibody treated-cells without a primary antibody were used as negative controls. Labeled cells were analyzed by flow cytometry."}, "[2]": {"test_system": "glioblastoma xenografted into the subcutaneous flank", "assay": "In vivo imaging after tail vein injection, subcutaneous flank xenograft", "parameters": "species or system NSG mice", "description": "(§1) Cyanine 5.5-conjugated peptide AWEFYFP (SEQ ID NO:2) and control peptide GGGSGGG (SEQ ID NO:33) were synthesized by LifeTein, LCC. (Hillsborough, N.J., USA). GSCs were implanted into subcutaneously (5×10^5 cells) or intracranially (5×10^4 cells) into 4 weeks old NSG mice under a Cleveland Clinic Foundation Institutional Animal Care and Use Committee approved protocol. After 4 weeks, cyanine 5.5-conjugated peptides were delivered into the mice via intravenous injection. Signals from injected peptides were monitored by fluorescence channel of IVIS Spectrum CT In Vivo Imaging System (PerkinElmer, USA) for 72 hours."}, "[3]": {"test_system": "intracranial glioma patient-derived xenografts", "assay": "In vivo imaging after tail vein injection, intracranial xenograft", "parameters": "species or system NSG mice", "description": "as §1"}},
  "note": "“Also recorded” adds a separate entry of the source. Ends that are not written are not given here.",
  "data": [
    {"substance": "5-VAV: CAR with peptide #5 linked to peptide VAV (binding agent SEQ ID NO:27) (NWYWVYPGGGGSGGGGSGGGGSSSQPFWSGSTSGSGKPGSGEGSTKG) [Peptide 5-VAV]", "values": [
      {"measurement": "IFNG release / recognition of GSC", "setting": "[1]", "value": "specific recognition of GSC (but not differentiated glioma cells, DGC, derived from the same patient)"}
    ]},
    {"substance": "AWEFYFP (also: carboxyfluorescein conjugate) [GBM-IC2, used fluorescein-conjugated for staining]", "values": [
      {"measurement": "binding to glioblastoma tissue relative to normal brain", "setting": "glioblastoma tissue", "value": "specifically bound to glioblastoma tissue, relative to normal brain; also recorded: preferential binding to glioblastoma tissue"},
      {"measurement": "binding to SOX2 expressing cells (co-staining with GSC marker SOX2)", "setting": "glioblastoma tissue; double staining with anti-SOX2", "value": "greater binding of GBM-IC2 to SOX2 expressing cells; also recorded: co-staining with SOX2"}
    ]},
    {"substance": "GBM-IC2-Cy5.5: GBM-IC2 peptide conjugated with Cyanine 5.5, a near infrared marker (AWEFYFP; also: Cy5.5 conjugate)", "values": [
      {"measurement": "binding to GSCs", "setting": "GSCs", "value": "binding to GSCs in a concentration-dependent manner"},
      {"measurement": "binding to GSCs", "setting": "GSCs; listed as GBM-IC2 conjugated with Cy5.5", "value": "preferential binding to GSC tumor sphere"},
      {"measurement": "earliest time of tumor binding after injection", "setting": "[2]; flank xenograft", "value": 20, "unit": "min"},
      {"measurement": "tumor targeting by imaging, flank xenograft", "setting": "[2]; in vivo and ex vivo", "value": "high specificity of binding to the tumor; also recorded: specific targeting of the tumor four hours after injection in a dose dependent manner"},
      {"measurement": "histological analysis of peptide signal in intracranial tumor", "setting": "[3]; ex vivo brain sections", "value": "positive fluorescent signal in the intracranial tumor samples"},
      {"measurement": "tumor targeting by imaging, intracranial xenograft", "setting": "[3]; tail vein injection, imaging 20 minutes post-injection, in vivo and ex vivo", "value": "strong specificity of binding of tumor in the intracranial cavity; also recorded: specific targeting of the intracranial tumor"},
      {"measurement": "penetration of the BBB", "setting": "[3]; tail vein injection, intracranial xenograft", "value": "penetrate the BBB"}
    ]}
  ]
}
